Data reported in BindingDB's records for doi:10.1021/acs.jmedchem.5b00659 (Taipei Medical University, 2015).

Molecular target: Signal transducer and activator of transcription 3 (Homo sapiens, UniProt P40763)
Test: Inhibition of STAT3 tyrosine phosphorylation in human A549 cells by sandwich ELISA method

Signal transducer and activator of transcription 3, sequence (P40763 whole entry): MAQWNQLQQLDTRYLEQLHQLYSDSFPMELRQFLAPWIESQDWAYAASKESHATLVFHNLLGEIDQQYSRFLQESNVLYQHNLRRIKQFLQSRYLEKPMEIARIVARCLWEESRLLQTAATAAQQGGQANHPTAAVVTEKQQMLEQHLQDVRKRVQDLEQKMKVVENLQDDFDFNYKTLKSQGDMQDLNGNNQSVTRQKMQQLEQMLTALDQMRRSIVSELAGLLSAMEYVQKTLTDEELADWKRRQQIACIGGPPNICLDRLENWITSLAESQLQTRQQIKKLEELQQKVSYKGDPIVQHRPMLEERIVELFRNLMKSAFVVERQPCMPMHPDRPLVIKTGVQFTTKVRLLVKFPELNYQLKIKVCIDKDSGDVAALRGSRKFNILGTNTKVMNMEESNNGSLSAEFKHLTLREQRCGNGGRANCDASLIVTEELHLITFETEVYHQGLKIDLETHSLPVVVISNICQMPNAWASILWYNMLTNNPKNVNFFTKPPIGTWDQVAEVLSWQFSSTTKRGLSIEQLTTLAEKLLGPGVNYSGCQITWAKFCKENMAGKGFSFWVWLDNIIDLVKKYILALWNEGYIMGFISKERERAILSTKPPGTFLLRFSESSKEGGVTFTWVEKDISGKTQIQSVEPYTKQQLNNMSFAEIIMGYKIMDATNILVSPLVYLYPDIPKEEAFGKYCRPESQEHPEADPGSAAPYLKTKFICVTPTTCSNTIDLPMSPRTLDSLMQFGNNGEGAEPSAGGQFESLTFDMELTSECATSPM

IC50: 2750 nM
Structure (SMILES): COc1ccc(S(=O)(=O)Nc2ccccc2-c2ccc(F)c(F)c2)cc1
